# Literature values as cited in US12527785B2, “Renin-angiotensin-aldosterone system (RAAS) inhibitors in the treatment of pancreatic ductal carcinoma” (OCHSNER CLINIC FOUNDATION, priority 2023, dated 2026).
# Settings: 100 mg EMA401 p.o. in men and women; cited from earlier work
compound,measurement,value
COc1ccc2c(c1OCc1ccccc1)C[C@@H](C(=O)O)N(C(=O)C(c1ccccc1)c1ccccc1)C2 [EMA401],Serum concentration,1000 ng/mL
